Tests used:
[1] = molecular target: T1, Androgen receptor (Rattus norvegicus) (UniProt P15207); test: […] relative binding affinity (1h/18h) as ratio of binding affinities for R1881 and compound against rat ventral prostate androgen receptor using [3H]- R1881 as radioligand; <0.01/<0.01
T1 sequence (whole entry): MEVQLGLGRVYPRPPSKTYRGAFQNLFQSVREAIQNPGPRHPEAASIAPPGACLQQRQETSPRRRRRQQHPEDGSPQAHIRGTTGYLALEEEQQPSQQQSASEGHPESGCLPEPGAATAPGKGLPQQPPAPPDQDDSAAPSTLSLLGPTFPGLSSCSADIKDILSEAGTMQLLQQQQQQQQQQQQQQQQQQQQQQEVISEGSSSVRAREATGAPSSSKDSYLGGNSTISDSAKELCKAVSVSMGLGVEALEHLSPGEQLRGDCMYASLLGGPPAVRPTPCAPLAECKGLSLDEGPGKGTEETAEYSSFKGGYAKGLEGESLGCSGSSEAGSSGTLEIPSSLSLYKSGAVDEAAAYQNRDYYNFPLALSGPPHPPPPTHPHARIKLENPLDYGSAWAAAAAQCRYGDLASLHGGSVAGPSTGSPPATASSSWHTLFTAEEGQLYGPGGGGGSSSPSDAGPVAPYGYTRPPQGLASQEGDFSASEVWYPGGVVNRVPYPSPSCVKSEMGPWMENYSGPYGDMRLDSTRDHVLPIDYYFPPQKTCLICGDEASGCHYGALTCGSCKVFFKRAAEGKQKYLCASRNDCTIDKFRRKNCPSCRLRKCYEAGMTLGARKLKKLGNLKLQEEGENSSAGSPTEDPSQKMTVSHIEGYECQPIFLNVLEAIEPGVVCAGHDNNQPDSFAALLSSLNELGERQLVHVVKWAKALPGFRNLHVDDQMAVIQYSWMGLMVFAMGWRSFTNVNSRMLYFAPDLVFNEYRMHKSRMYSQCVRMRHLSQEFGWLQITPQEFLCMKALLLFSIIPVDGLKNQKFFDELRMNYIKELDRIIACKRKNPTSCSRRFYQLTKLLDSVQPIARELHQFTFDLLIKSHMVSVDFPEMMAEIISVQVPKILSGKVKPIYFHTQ

Androgen receptor [2] = molecular target: T2, Androgen receptor (Rattus norvegicus, UniProt P15207)
T2 sequence (P15207 whole entry): T1 sequence (whole entry)
Description: In vivo binding affinity for rat ventral prostate androgen receptor by displacement of [3H]R-1881

[3] = molecular target: T1, Androgen receptor (Rattus norvegicus); test: […] relative binding affinity (1h/18h) as ratio of binding affinities for R1881 and compound against rat ventral prostate androgen receptor using [3H]- R1881 as radioligand; 1.2/0.05
[4] = molecular target: T1, Androgen receptor (Rattus norvegicus); test: […] relative binding affinity (1h/18h) as ratio of binding affinities for R1881 and compound against rat ventral prostate androgen receptor using [3H]- R1881 as radioligand; <.01/<.01
Androgen receptor [5] = molecular target: T2, Androgen receptor; test: […] binding affinity for rat ventral prostate androgen receptor by displacement of [3H]R-1881; design: species or system Prostate gland
[6] = molecular target: T1, Androgen receptor (Rattus norvegicus); test: […] relative binding affinity (1h/18h) as ratio of binding affinities for R1881 and compound against rat ventral prostate androgen receptor using [3H]- R1881 as radioligand; 0.26/0.04

Question: For `C#C[C@]1(O)CCC2C3CC[C@H]4Cc5cc(S(C)(=O)=O)oc5C[C@]4(C)C3CC[C@@]21C` (some centres undefined), which relative binding affinity (RBA) [1] is on record?
Answer: Its relative binding affinity (RBA) is less than 0.01.

Question: And the Ki (Androgen receptor [2])?
Answer: The Ki was greater than 29000 nM.

Question: Which relative binding affinity (RBA) [3] does the source give for `C#C[C@]1(O)CCC2C3CC[C@H]4Cc5oc(S(C)(=O)=O)nc5C[C@]4(C)C3CC[C@@]21C` (some centres undefined) here?
Answer: Its relative binding affinity (RBA) is 1.2.

Question: `C#C[C@]1(O)CCC2C3CC[C@H]4Cc5nc(S(C)(=O)=O)sc5C[C@]4(C)C3CC[C@@]21C` (some centres undefined) was tested. Which Ki (Androgen receptor [2]) did it give?
Answer: The Ki was 860 nM.

Question: With `C#C[C@]1(O)CCC2C3CC[C@H]4Cc5oc(S(C)(=O)=O)cc5C[C@]4(C)C3CC[C@@]21C` (some centres undefined) as the compound, how does the Ki (Androgen receptor [2]) read?
Answer: Its Ki is 520 nM.

Question: Which relative binding affinity (RBA) [4] does the source give for `C#C[C@]1(O)CCC2C3CC[C@H]4Cc5sc(S(C)(=O)=O)cc5C[C@]4(C)C3CC[C@@]21C` (some centres undefined) here?
Answer: The relative binding affinity (RBA) was less than 0.01.

Question: What about the Ki (Androgen receptor [2]) of the same compound?
Answer: The Ki was greater than 29000 nM.

Question: Which results are given for `C#C[C@]1(O)CCC2C3CC[C@H]4Cc5nc(S(C)(=O)=O)ncc5C[C@]4(C)C3CC[C@@]21C` (some centres undefined)?
Answer: Ki (Androgen receptor [5]): 3 µM; relative binding affinity (RBA) [6]: 0.26

— ChEMBL document CHEMBL1126028, “Antiandrogenic steroidal sulfonyl heterocycles. Utility of electrostatic complementarity in defining bioisosteric sulfonyl heterocycles” (J Med Chem, 1992)
